Structures can show the parent of a compound that is named as a salt. Where two headings read alike, the source gives them in different places.
Key:
Assay type in all cases: biochemical
MMP-1 = target: T1, MMP-1 (Homo sapiens, UniProt P03956); assay: MMP-1 inhibition (in vitro Ki)
T1 construct: made in house; host or cells: MMP-1-transfected HT-1080 cells (spent media)
T1 sequence (P03956 100-469): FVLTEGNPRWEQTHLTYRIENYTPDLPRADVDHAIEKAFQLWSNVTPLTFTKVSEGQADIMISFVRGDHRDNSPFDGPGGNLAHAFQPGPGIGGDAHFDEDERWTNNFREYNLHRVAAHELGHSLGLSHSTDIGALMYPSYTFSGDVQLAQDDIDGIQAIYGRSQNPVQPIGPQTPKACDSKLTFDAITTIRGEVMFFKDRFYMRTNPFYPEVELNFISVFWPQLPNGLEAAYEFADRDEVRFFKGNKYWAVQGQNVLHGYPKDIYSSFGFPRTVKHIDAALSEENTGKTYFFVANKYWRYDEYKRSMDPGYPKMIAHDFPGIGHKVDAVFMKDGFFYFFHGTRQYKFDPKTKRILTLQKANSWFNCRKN

MMP-2 = target: T2, MMP-2 (Homo sapiens, UniProt P08253); assay: MMP-2 inhibition (in vitro Ki)
T2 construct: made in house; host or cells: MMP-2-transfected p2AHT2 cells
T2 sequence (P08253 110-660): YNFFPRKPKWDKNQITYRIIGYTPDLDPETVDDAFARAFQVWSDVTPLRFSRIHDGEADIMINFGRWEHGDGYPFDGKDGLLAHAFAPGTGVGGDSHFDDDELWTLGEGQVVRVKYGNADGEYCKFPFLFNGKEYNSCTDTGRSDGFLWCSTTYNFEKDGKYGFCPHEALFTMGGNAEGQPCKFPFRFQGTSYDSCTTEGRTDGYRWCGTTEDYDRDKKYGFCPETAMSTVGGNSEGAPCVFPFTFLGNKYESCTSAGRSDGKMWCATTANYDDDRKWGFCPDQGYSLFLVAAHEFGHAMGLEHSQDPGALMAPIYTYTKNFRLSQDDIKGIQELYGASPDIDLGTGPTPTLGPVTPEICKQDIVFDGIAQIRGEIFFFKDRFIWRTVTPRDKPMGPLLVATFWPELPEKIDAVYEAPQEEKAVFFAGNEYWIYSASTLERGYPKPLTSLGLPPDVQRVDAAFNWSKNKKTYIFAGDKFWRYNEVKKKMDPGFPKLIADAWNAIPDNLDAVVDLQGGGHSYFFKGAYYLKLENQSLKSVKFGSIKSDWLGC

MMP-9 = target: T3, MMP-9 (Homo sapiens, UniProt P14780); assay: MMP-9 inhibition (in vitro Ki)
T3 construct: made in house; host or cells: MMP-9-transfected HT1080 cells (spent media)

MMP-13 = target: T4, MMP-13 (Homo sapiens, UniProt P45452); assay: MMP-13 inhibition (in vitro Ki)
T4 construct: made in house; host or cells: baculovirus / insect cells

MMP-14 = target: T5, MMP-14 (Homo sapiens, UniProt P50281); assay: MMP-14 inhibition (in vitro Ki)
T5 construct: The catalytic domain enzyme was expressed in E. coli inclusion bodies, solubilized in urea; made in house

[1] = Table 9, read-out: MMP-1 Ki (IC-50)
[2] = Table 9, read-out: MMP-2 Ki (IC-50)
[3] = Table 9, read-out: MMP-9 Ki (IC-50)
[4] = Table 9, read-out: MMP-13 Ki (IC-50)
[5] = Table 9, read-out: MMP-14 Ki (IC-50)

T3 sequence (P14780 107-707 limits assumed): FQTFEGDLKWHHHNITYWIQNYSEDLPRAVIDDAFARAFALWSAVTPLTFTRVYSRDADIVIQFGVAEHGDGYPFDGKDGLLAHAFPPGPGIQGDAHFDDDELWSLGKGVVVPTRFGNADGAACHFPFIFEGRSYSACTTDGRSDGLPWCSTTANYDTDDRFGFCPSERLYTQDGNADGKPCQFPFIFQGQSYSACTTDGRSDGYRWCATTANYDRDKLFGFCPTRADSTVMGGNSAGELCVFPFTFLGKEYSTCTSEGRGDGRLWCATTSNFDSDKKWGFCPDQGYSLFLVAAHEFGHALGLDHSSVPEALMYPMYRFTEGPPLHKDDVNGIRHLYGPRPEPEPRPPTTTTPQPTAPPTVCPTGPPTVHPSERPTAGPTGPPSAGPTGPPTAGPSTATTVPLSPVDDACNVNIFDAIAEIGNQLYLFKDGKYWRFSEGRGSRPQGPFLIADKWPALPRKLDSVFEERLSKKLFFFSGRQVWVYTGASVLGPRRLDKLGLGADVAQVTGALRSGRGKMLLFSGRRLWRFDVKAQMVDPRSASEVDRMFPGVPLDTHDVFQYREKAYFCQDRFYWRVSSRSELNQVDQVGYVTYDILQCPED

| Ki (MMP-1; [1]) [nM] | Ki (MMP-2; [2]) [nM] | Ki (MMP-9; [3]) [nM] | Ki (MMP-13; [4]) [nM] | Ki (MMP-14; [5]) [nM] | SMILES | also measured |
| --- | --- | --- | --- | --- | --- | --- |
| – | – | – | – | – | CCCCCCOCC1CCN(S(=O)(=O)C2(C(=O)NO)CCOCC2)CC1 [Example A41, 4-(4-hexyloxymethyl-piperidine-1-sulfonyl)-tetrahydro-pyran-4-carboxylic Acid Hydroxyamide] | Ki (MMP-1; Table 8, read-out: MMP-1 Ki): > 10000 nM; Ki (MMP-2; Table 8, read-out: MMP-2 Ki): 8.38 nM; Ki (MMP-9; Table 8, read-out: MMP-9 Ki): 1.79 nM; Ki (MMP-13; Table 8, read-out: MMP-13 Ki): 7.95 nM; Ki (MMP-14; Table 8, read-out: MMP-14 Ki): 7210 nM |
| 4440 | 2.89 | 0.86 | 0.85 | 3370 | COCCC(CCOC)(C(=O)NO)S(=O)(=O)N1CCC(c2ccc(CCC(F)(F)C(F)(F)F)cn2)CC1 [Example A107] | – |
| 496 | 135 | 592 | 1.63 | > 10000 | O=C(CCCCC1CCN(S(=O)(=O)C2(C(=O)NO)CCOCC2)CC1)N1CCCC1 [Example A97] | – |
| 2580 | 781 | 3800 | 5.08 | > 10000 | CC(C)CN(C)C(=O)CCCCC1CCN(S(=O)(=O)C2(C(=O)NO)CCOCC2)CC1 [Example A91] | – |
| > 10000 | 529 | 613 | 40.9 | > 10000 | O=C(NO)C1(S(=O)(=O)N2CCC(CCCc3nc(-c4ccc(OC(F)(F)F)cc4)no3)CC2)CCOCC1 [Example A160] | – |
| > 10000 | 3.8 | 1.4 | 2 | > 10000 | O=C(NO)C1(S(=O)(=O)N2CCC(c3cnc(CCC(F)(F)F)cn3)CC2)CCOCC1 [Example A72] | – |
| – | – | – | – | – | O=C(NO)C1(S(=O)(=O)N2CCC(CCCCCC(F)(F)C(F)(F)F)CC2)CCOCC1 [Example A54, 4-[4-(6,6,7,7,7-pentafluoro-heptyl)-piperidine-1-sulfonyl]-tetrahydro-pyran-4-carboxylic Acid Hydroxyamide] | Ki (MMP-1; Table 8, read-out: MMP-1 Ki): > 10000 nM; Ki (MMP-2; Table 8, read-out: MMP-2 Ki): 1.06 nM; Ki (MMP-9; Table 8, read-out: MMP-9 Ki): 0.81 nM; Ki (MMP-13; Table 8, read-out: MMP-13 Ki): 0.67 nM; Ki (MMP-14; Table 8, read-out: MMP-14 Ki): 3410 nM |
| 1710 | 0.31 | 0.27 | 0.13 | 470 | CSCCOc1ccc(C2CCN(S(=O)(=O)C3(C(=O)NO)CCOCC3)CC2)nc1 [Example A191] | – |
| – | – | – | – | – | O=C(NO)C1(S(=O)(=O)N2CCN(c3ccc(CCCC(F)(F)F)c(F)c3)CC2)CCN(C2CC2)CC1 [Example A62, 1-cyclopropyl-4-({4-[3-fluoro-4-(4,4,4-trifluorobutyl)phenyl]piperazin-1-yl}sulfonyl)-N-hydroxypiperidine-4-carboxamide Hydrochloride] | Ki (MMP-1; Table 8, read-out: MMP-1 Ki): > 10000 nM; Ki (MMP-2; Table 8, read-out: MMP-2 Ki): 0.73 nM; Ki (MMP-9; Table 8, read-out: MMP-9 Ki): 1.74 nM; Ki (MMP-13; Table 8, read-out: MMP-13 Ki): 0.56 nM; Ki (MMP-14; Table 8, read-out: MMP-14 Ki): 9050 nM |
| 630 | 3.25 | 55.5 | 0.16 | 4520 | O=C(NCCCCC1CCN(S(=O)(=O)C2(C(=O)NO)CCOCC2)CC1)C(=O)c1cccs1 [Example A108] | – |
| > 10000 | 0.93 | 0.39 | 0.3 | 5890 | COCCN1CCC(C(=O)NO)(S(=O)(=O)N2CCC(c3ccc(CCC(F)(F)C(F)(F)F)cn3)CC2)CC1 [Example A182] | – |
| 3440 | 0.68 | 0.24 | 0.14 | 763 | CC(C)CC#Cc1ccc(C2CCN(S(=O)(=O)C3(C(=O)NO)CCOCC3)CC2)nc1 [Example A138] | – |
| 4510 | 1.15 | 0.194 | 0.301 | 2290 | O=C(NO)C1(S(=O)(=O)N2CCC(c3ccc(COCC4CC4)cn3)CC2)CCOCC1 [Example A162] | – |
| 5460 | 0.54 | 1.05 | 0.14 | 1250 | O=C(NO)C1(S(=O)(=O)N2CCC(c3ccc(CCC4CCCC4)cn3)CC2)CCOCC1 [Example A106] | – |
| – | – | – | – | – | COCCC(C(=O)NO)S(=O)(=O)N1CCC(Oc2ccc(SC(F)(F)F)cc2)CC1 (centres unmarked) [Example B3, N-hydroxy-4-methoxy-2-[(4-{4-[(trifluoromethyl)thio]phenoxy}piperidin-1-yl)sulfonyl]butanamide] | Ki (MMP-1; Table 10, read-out: MMP-1 Ki): > 10000 nM; Ki (MMP-2; Table 10, read-out: MMP-2 Ki): 0.791 nM; Ki (MMP-9; Table 10, read-out: MMP-9 Ki): 0.332 nM; Ki (MMP-13; Table 10, read-out: MMP-13 Ki): 0.985 nM; Ki (MMP-14; Table 10, read-out: MMP-14 Ki): 1950 nM |
| > 10000 | 390 | 814 | 12.5 | > 10000 | O=C(CCCCN1CCN(S(=O)(=O)C2(C(=O)NO)CCOCC2)CC1)c1cccc(OC(F)(F)F)c1 [Example A140] | – |
| 7630 | 2.13 | 7.97 | 0.376 | 2270 | O=C(NO)C1(S(=O)(=O)N2CCC(c3ccc(CCc4ccsc4)cn3)CC2)CCOCC1 [Example A95] | – |
| 3590 | 0.33 | 1.16 | 0.93 | 297 | O=C(NO)C1(S(=O)(=O)N2CCN(c3ccc(-c4ccsc4)c(F)c3)CC2)CCOCC1 [Example A205] | – |
| – | – | – | – | – | O=C(NO)C1(S(=O)(=O)N2CCC(CCCCCOCCC(F)(F)F)CC2)CCOCC1 [Example A37, 4-{4-[5-(3,3,3-Trifluoro-propoxy)-pentyl]-piperidine-1-sulfonyl}-tetrahydro-pyran-4-carboxylic Acid Hydroxyamide] | Ki (MMP-1; Table 8, read-out: MMP-1 Ki): 6710 nM; Ki (MMP-2; Table 8, read-out: MMP-2 Ki): 0.97 nM; Ki (MMP-9; Table 8, read-out: MMP-9 Ki): 0.3 nM; Ki (MMP-13; Table 8, read-out: MMP-13 Ki): 0.3 nM; Ki (MMP-14; Table 8, read-out: MMP-14 Ki): 690 nM |
| – | – | – | – | – | COCCC(CCOC)(C(=O)NO)S(=O)(=O)N1CCC(Oc2ccc(SC(F)(F)F)cc2)CC1 [Example B4, N-hydroxy-4-methoxy-2-(2-methoxyethyl)-2-[(4-{4-[(trifluoromethyl)thio]phenoxy}piperidin-1-yl)sulfonyl]butanamide] | Ki (MMP-1; Table 10, read-out: MMP-1 Ki): 2060 nM; Ki (MMP-2; Table 10, read-out: MMP-2 Ki): 0.654 nM; Ki (MMP-9; Table 10, read-out: MMP-9 Ki): 0.181 nM; Ki (MMP-13; Table 10, read-out: MMP-13 Ki): 0.45 nM; Ki (MMP-14; Table 10, read-out: MMP-14 Ki): 1640 nM |
| 8890 | 2.35 | 96.1 | 2.1 | 1300 | N#Cc1ccc(N2CCN(S(=O)(=O)C3(C(=O)NO)CCOCC3)CC2)cc1F [Example A180] | – |
| – | – | – | – | – | COCCC(C(=O)NO)S(=O)(=O)N1CCC(c2ccc(CCC(F)(F)C(F)(F)F)cc2)CC1 (centres unmarked) [Example A66, N-hydroxy-4-methoxy-2-({4-[4-(3,3,4,4,4-pentafluorobutyl)phenyl]piperidin-1-yl}sulfonyl)butanamide] | Ki (MMP-1; Table 8, read-out: MMP-1 Ki): > 10000 nM; Ki (MMP-2; Table 8, read-out: MMP-2 Ki): 2.15 nM; Ki (MMP-9; Table 8, read-out: MMP-9 Ki): 1.15 nM; Ki (MMP-13; Table 8, read-out: MMP-13 Ki): 1.28 nM; Ki (MMP-14; Table 8, read-out: MMP-14 Ki): 9640 nM |
| > 10000 | > 10000 | > 10000 | 154 | > 10000 | O=C(CCCCN1CCN(S(=O)(=O)C2(C(=O)NO)CCOCC2)CC1)N1CCCCC1 [Example A119] | – |
| 3420 | 82.3 | 553 | 3 | > 10000 | O=C(CCCCC1CCN(S(=O)(=O)C2(C(=O)NO)CCOCC2)CC1)N1CCOCC1 [Example A85] | – |
| 3100 | 0.37 | 0.27 | 0.12 | 2600 | CC(C)(C(=O)NO)S(=O)(=O)N1CCC(c2ccc(CCC(F)(F)C(F)(F)F)cn2)CC1 [Example A122] | – |
| 7050 | 0.38 | 0.52 | 0.41 | 985 | O=C(NO)C1(S(=O)(=O)N2CCN(c3ccc(CCC(F)(F)F)cn3)CC2)CCOCC1 [Example A184] | – |
| 1710 | 0.08 | 0.81 | 0.15 | 184 | CCc1nc(-c2ccc(N3CCN(S(=O)(=O)C4(C(=O)NO)CCOCC4)CC3)cc2)no1 [Example A176] | – |
| – | – | – | – | – | O=C(NO)C1(S(=O)(=O)N2CCC(COCCCC(F)(F)F)CC2)CCOCC1 [Example A42, 4-[4-(4,4,4-trifluoro-butoxymethyl)-piperidine-1-sulfonyl]-tetrahydro-pyran-4-carboxylic Acid Hydroxyamide] | Ki (MMP-1; Table 8, read-out: MMP-1 Ki): > 10000 nM; Ki (MMP-2; Table 8, read-out: MMP-2 Ki): 22 nM; Ki (MMP-9; Table 8, read-out: MMP-9 Ki): 28.6 nM; Ki (MMP-13; Table 8, read-out: MMP-13 Ki): 33.3 nM; Ki (MMP-14; Table 8, read-out: MMP-14 Ki): > 10000 nM |
